Source: US20160037775A1, “ACTIVE INGREDIENT COMBINATIONS HAVING INSECTICIDAL AND ACARICIDAL PROPERTIES” (priority 2010, published 2016)
Where two headings read alike, the source gives them in different places.

Tests used:
Format in all cases: in vivo
Myzus persicae = assay: whole plant or invertebrate
Text: (§1) If the actual kill rate is greater than that calculated, the kill rate of the combination is superadditive, which means that a synergistic effect is present. In this case, the kill rate actually observed must be greater than the value calculated from the above formula for the expected kill rate (E).
(§2) • 78 parts by weight of acetone • 1.5 parts by weight of dimethylformamide Emulsifier: 0.5 part by weight of alkylaryl polyglycol ether
(§3) To produce an appropriate active ingredient formulation, 1 part by weight of active ingredient is mixed with the stated amounts of solvent and emulsifier, and the concentrate is diluted with emulsifier-containing water to the desired concentration.
After the desired time, the kill in % is determined. 100% means that all aphids have been killed; 0% means that no aphids have been killed. The kill rates determined are entered into Colby's formula.

Phaedon cochleariae = assay: whole plant or invertebrate; settings: for pest or weed control at 0.16 g/ha: Phaedon cochleariae, 144 h, read-out: Kill rate in % after 6 d
Text: (§4) The expected action for a given combination of two active ingredients can be calculated according to S. R. Colby, Weeds 15 (1967), 20-22 as follows:
(§5) • X is the kill rate, expressed in % of the untreated control, in the case of use of active ingredient A in an application rate of m g/ha or in a concentration of m ppm, • Y is the kill rate, expressed in % of the untreated control, in the case of use of active ingredient B in an application rate of n g/ha or in a concentration of n ppm, and • E is the kill rate, expressed in % of the untreated control, in the case of use of active ingredients A and B in application rates of m and n g/ha or in a concentration of m and n ppm, then
as §1, §2, §3
Cabbage leaves (Brassica oleracea) are treated by spraying with the active ingredient formulation of the desired concentration and populated with larvae of the mustard beetle (Phaedon cochleariae) while the leaves are still moist.
After the desired period of time, the kill rate in % is determined. 100% means that all beetle larvae have been killed; 0% means that none of the beetle larvae have been killed. The kill rates determined are entered into Colby's formula.

Tetranychus urticae = assay: Tetranychus test (OP-resistant/spray treatment); settings: applied individually
Text: as §4, §5, §1, §2, §3
Discs of bean leaves (Phaseolus vulgaris) infested by all stages of the two-spotted spider mite (Tetranychus urticae) are sprayed with an active ingredient formulation of the desired concentration.
After the desired period of time, the effect in % is determined. 100% means that all of the spider mites have been killed; 0% means that none of the spider mites have been killed.

[1] = Myzus persicae, 24 h, 4 g/ha, after 1 d, read-out: Kill rate in % after 1 d
[2] = Myzus persicae, 144 h, 0.16 g/ha, after 6 d, read-out: Kill rate in % after 6 d
[3] = Myzus persicae, 24 h, after 1 d, read-out: Kill rate in % after 1 d
[4] = Myzus persicae, 144 h, 0.8 g/ha, after 6 d, read-out: Kill rate in % after 6 d
[5] = Tetranychus urticae, 48 h, after 2 d, read-out: Kill rate in % after 2 d
[6] = Myzus persicae, 24 h, 0.8 g/ha, after 1 d, read-out: Kill rate in % after 1 d
[7] = Tetranychus urticae, 48 h, 4 g/ha, after 2 d, read-out: Kill rate in % after 2 d
[8] = Tetranychus urticae, 144 h, after 6 d, read-out: Kill rate in % after 6 d
[9] = Myzus persicae, 24 h, 0.16 g/ha, after 1 d, read-out: Kill rate in % after 1 d

In the case of `CC[S+]([O-])c1c(C#N)nn(-c2c(Cl)cc(C(F)(F)F)cc2Cl)c1N` (stereo not drawn) [ethiprole], the pest or weed control at 4 g/ha (Myzus persicae; [1]) is reported as 0%.
In the case of `CNC(=O)c1cc(C#N)cc(C)c1NC(=O)c1cc(Br)nn1-c1ncccc1Cl` [cyantraniliprole], the pest or weed control at 0.16 g/ha (Myzus persicae; [2]) is reported as 0%, the “Kill rate in % after 2 d” value (Phaedon cochleariae; 0.16 g/ha, after 2 d) is reported as 0% and the pest or weed control at 0.16 g/ha (Phaedon cochleariae; 0.16 g/ha, after 6 d) is reported as 0%.
With `N#C/N=C1\SCCN1Cc1ccc(Cl)nc1` [thiacloprid] the pest or weed control at 20 g/ha (Myzus persicae; [3]) was 80% and the pest or weed control at 0.8 g/ha (Myzus persicae; [4]) was 80%.
For `CNC(=O)O/N=C/C(C)(C)SC` [aldicarb], the pest or weed control at 0.8 g/ha (Myzus persicae; [4]) was 0% and the “Kill rate in % after 2 d” value (Phaedon cochleariae; 0.8 g/ha, after 2 d) was 0%.
For `COP(N)(=O)SC` (stereo not drawn) [methamidophos], the pest or weed control at 20 g/ha (Myzus persicae; [3]) was 0% and the pest or weed control at 100 g/ha (Myzus persicae; Myzus persicae, 24 h, 100 g/ha, after 1 d, read-out: Kill rate in % after 1 d) was 80%.
With `CN/C(=N/CC1CCOC1)N[N+](=O)[O-]` (stereo not drawn) [dinotefuran] the “Kill rate in % after 2 d” value (Phaedon cochleariae; in vivo) was 0%.
`CS/C(C)=N\OC(=O)N(C)SN(C)C(=O)O/N=C(\C)SC` [thiodicarb] was tested, and the pest or weed control at 20 g/ha (Myzus persicae; [3]) was 0% and the pest or weed control at 100 g/ha (Tetranychus urticae; [5]) was 0%.
For `CC1(C)C(C=C(Cl)Cl)C1C(=O)OC(C#N)c1ccc(F)c(Oc2ccccc2)c1` (stereo not drawn) [β-cyfluthrin], the “Kill rate in % after 1 d” value (Myzus persicae; 0.032 g/ha, after 1 d) was 0%, the “Kill rate in % after 1 d” value (Myzus persicae; 0.16 g/ha, after 1 d) was 70% and the “Kill rate in % after 2 d” value (Phaedon cochleariae; 0.032 g/ha, after 2 d) was 0%.
With spinetoram the “Kill rate in % after 6 d” value (Myzus persicae; 0.8 g/ha, after 6 d) was 0%, the “Kill rate in % after 1 d” value (Myzus persicae; 4 g/ha, after 1 d) was 0% and the “Kill rate in % after 6 d” value (Tetranychus urticae; 4 g/ha, after 6 d) was 20%. The “Kill rate in % after 6 d” value (Phaedon cochleariae; 0.16 g/ha, after 6 d) was 0%.
With `C/C(=N\C#N)N(C)Cc1ccc(Cl)nc1` [acetamiprid] the pest or weed control at 0.16 g/ha (Myzus persicae; [2]) was 0%.
In the case of milbemectin, the “Kill rate in % after 6 d” value (Myzus persicae; 0.032 g/ha, after 6 d) is reported as 0%, the “Kill rate in % after 1 d” value (Myzus persicae; 0.8 g/ha, after 1 d) is reported as 0% and the “Kill rate in % after 2 d” value (Tetranychus urticae; 0.032 g/ha, after 2 d) is reported as 50%.
In the case of `CC1(C)[C@H](C(=O)O[C@H](C#N)c2cccc(Oc3ccccc3)c2)[C@@H]1C=C(Br)Br` [deltamethrin], the pest or weed control at 0.8 g/ha (Myzus persicae; [6]) is reported as 0%.
With `Cc1cc(Cl)cc(C)c1C1=C(O)C2(CCC3(CC2)OCCO3)NC1=O` [11-(4-chloro-2,6-dimethylphenyl)-12-hydroxy-1,4-dioxa-9-azadispiro[4.2.4.2]tetradec-11-en-10-one] the pest or weed control at 0.8 g/ha (Myzus persicae; [4]) was 0%.
In the case of `CC1(C)[C@H](C(=O)O[C@H](C#N)c2cccc(Oc3ccccc3)c2)[C@@H]1/C=C\C(=O)OC(C(F)(F)F)C(F)(F)F` [acrinathrin], the pest or weed control at 0.8 g/ha (Myzus persicae; [6]) is reported as 0%, the pest or weed control at 0.8 g/ha (Tetranychus urticae; [5]) is reported as 0% and the pest or weed control at 4 g/ha (Tetranychus urticae; [7]) is reported as 20%. The pest or weed control at 0.8 g/ha (Tetranychus urticae; [8]) was 40%.
`CC1(C)C(C=C(Cl)Cl)C1C(=O)OC(C#N)c1cccc(Oc2ccccc2)c1` (stereo not drawn) [cypermethrin] was tested, and the pest or weed control at 4 g/ha (Myzus persicae; [1]) was 80% and the pest or weed control at 0.16 g/ha (Phaedon cochleariae; 0.16 g/ha, after 6 d) was 0%.
For `CC1(C)C(C=C(Cl)Cl)C1C(=O)OC(C#N)c1cccc(Oc2ccccc2)c1` (stereo not drawn) [alpha-cypermethrin], the pest or weed control at 0.16 g/ha (Myzus persicae; [9]) was 70% and the pest or weed control at 4 g/ha (Tetranychus urticae; [7]) was 0%.
With `CCOP(=O)(SC(C)CC)SC(C)CC` (stereo not drawn) [cadusaphos] the pest or weed control at 20 g/ha (Myzus persicae; [3]) was 0% and the pest or weed control at 20 g/ha (Tetranychus urticae; Tetranychus urticae, 144 h, 20 g/ha, after 6 d, read-out: Kill rate in % after 6 d) was 0%.
`N#Cc1nn(-c2c(Cl)cc(C(F)(F)F)cc2Cl)c(N)c1[S+]([O-])C(F)(F)F` (stereo not drawn) [fipronil] was tested, and the pest or weed control at 0.16 g/ha (Myzus persicae; [2]) was 0% and the “Kill rate in % after 2 d” value (Phaedon cochleariae; 0.16 g/ha, after 2 d) was 67%.
`CCOP(=S)(OCC)Oc1nc(Cl)c(Cl)cc1Cl` [chlorpyrifos] was tested, and the pest or weed control at 4 g/ha (Myzus persicae; [1]) was 80% and the pest or weed control at 100 g/ha (Tetranychus urticae; [8]) was 0%.
With `CC(c1ccc(C(F)(F)F)nc1)S(C)(=O)=NC#N` (stereo not drawn) [sulfoxaflor] the pest or weed control at 0.16 g/ha (Myzus persicae; [9]) was 0%.
Compound `CN1COCN(Cc2cnc(Cl)s2)/C1=N\[N+](=O)[O-]` [thiamethoxam] has a pest or weed control at 20 g/ha (Myzus persicae; [3]) of 70%.
